IC50 data for 28 molecules are collected here from US8039487B2, “Piperidine-amide derivatives” (Hoffmann-La Roche Inc., priority 2007, dated 2011).

The target in this assay is T1, liver carnitine palmitoyl transferase 1 (L-CPT1) (Homo sapiens, UniProt P50416).
T1 construct: made in house; host or cells: Pichia pastoris strain X-33 (crude cell-free extract)
T1 sequence (P50416 1-773): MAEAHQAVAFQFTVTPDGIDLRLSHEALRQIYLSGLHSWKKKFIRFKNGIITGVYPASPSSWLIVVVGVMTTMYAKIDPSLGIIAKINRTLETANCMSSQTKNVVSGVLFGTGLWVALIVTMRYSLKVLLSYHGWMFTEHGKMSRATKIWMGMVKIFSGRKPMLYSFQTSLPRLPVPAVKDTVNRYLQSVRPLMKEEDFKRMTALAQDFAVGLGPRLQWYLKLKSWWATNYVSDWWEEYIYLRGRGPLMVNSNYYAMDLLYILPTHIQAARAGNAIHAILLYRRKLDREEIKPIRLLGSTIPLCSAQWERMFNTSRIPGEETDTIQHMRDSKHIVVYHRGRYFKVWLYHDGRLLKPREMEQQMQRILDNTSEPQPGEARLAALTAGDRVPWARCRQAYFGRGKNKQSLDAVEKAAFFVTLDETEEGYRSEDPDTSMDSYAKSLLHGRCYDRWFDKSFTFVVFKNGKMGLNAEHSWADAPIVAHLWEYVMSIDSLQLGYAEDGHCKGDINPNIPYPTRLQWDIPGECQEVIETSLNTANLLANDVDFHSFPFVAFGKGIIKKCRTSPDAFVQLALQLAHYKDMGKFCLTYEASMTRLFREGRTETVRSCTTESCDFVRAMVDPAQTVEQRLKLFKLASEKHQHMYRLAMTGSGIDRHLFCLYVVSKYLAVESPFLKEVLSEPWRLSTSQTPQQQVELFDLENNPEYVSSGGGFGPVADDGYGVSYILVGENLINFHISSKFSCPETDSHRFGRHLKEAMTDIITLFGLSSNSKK
Description: L-CPT1 inhibition, spectrophotometric CPT activity assay with DTNB (Ellman's reagent). Format: biochemical. Conditions: human liver CPT1 expressed in P. pastoris, cell extracts; carnitine 500 μM, palmitoyl-CoA 80 μM, DTNB 300 μM, pH 7.4. How it is done: The following tests were carried out in order to determine the activity of the compounds of the present invention. Background information on the performed assays can be found in: Jackson et al., 1999, Biochem. J. 341, 483-489 and Jackson et al., 2000, J. Biol. Chem. 275, 19560-19566.
Human liver and muscle CPT1 cDNAs and rat CPT2 cDNA were subcloned in pGAPZB or pGAPZA, respectively. These plasmids were used to transform P. pastoris strain X-33 via electroporation after the preparation of electrocompetent cells. High copy number clones were selected where necessary using 0.5 or 1 mg/ml Zeocin. Cultures for activity measurements were induced for 16 h in YPD medium (1% yeast extract, 2% peptone, 2% glucose). Crude cell extracts were prepared by disrupting the cells with glass beads or French Press, depending on fermenter sizes. After centrifugation, the cell-free extracts were resuspended in cell breaking buffer (50 mM Tris, pH7.4, 100 mM KCl, 1 mM EDTA) in the presence of a protease inhibitor cocktail, before aliquoting and freezing at −20° C.
CPT activity was measured using a spectrophotometric assay using 5,5′-dithio-bis-(2-nitrobenzoic acid) (DTNB) also called Ellman's reagent. The HS-CoA released on the formation of acylcarnitine from carnitine (500 μM) and palmitoyl-CoA (80 μM) reduced DTNB (300 μM) forming 5-mercapto-(2-nitrobenzoic acid) which absorbed at 410 nm with a molar extinction coefficient of 13600 M^−1cm^−1. The assay buffer contained 120 mM KCl, 25 mM Tris, pH 7.4, 1 mM EDTA. This assay was used for the identification of selective inhibitors of the liver CPT1 isoform versus the muscle CPT1 and CPT2 isoforms.
In general terms: Ellman's reagent forms a yellow product with free thiols.
Take `O=C(COc1ccccc1)N1CCCC[C@@H]1c1nc(-c2ccc(Cl)cc2)cs1` [Example 1, 1-{(R)-2-[4-(4-Chloro-phenyl)-thiazol-2-yl]-piperidin-1-yl}-2-phenoxy-ethanone]: half-maximal inhibition (IC50) was put at 1.4 µM.

Consider `O=C(COc1ccccc1)N1CCCC[C@@H]1c1nc(-c2ccccc2)cs1` [Example 2, 2-Phenoxy-1-[(R)-2-(4-phenyl-thiazol-2-yl)-piperidin-1-yl]-ethanone], for which the IC50 (commonly the midpoint of a concentration-inhibition curve) worked out at 0.268 µM.

Regarding `O=C(O)c1ccc(-c2csc([C@H]3CCCCN3C(=O)COc3ccccc3)n2)cc1` [Example 3, 4-{2-[(R)-1-(2-Phenoxy-acetyl)-piperidin-2-yl]-thiazol-4-yl}-benzoic acid], the IC50 came out at 0.129 µM.

`O=C(COc1ccccc1)N1CCCC[C@@H]1c1nc(-c2ccc(OC(F)(F)F)cc2)cs1` [Example 4, 2-Phenoxy-1-{(R)-2-[4-(4-trifluoromethoxy-phenyl)-thiazol-2-yl]-piperidin-1-yl}-ethanone] had an IC50 of 0.798 µM.

As to `O=C(O)c1cccc(-c2csc([C@H]3CCCCN3C(=O)COc3ccccc3)n2)c1` [Example 5, 3-{2-[(R)-1-(2-Phenoxy-acetyl)-piperidin-2-yl]-thiazol-4-yl}-benzoic acid], inhibition was half-maximal at 0.0335 µM (IC50).

On to `O=C(COc1ccccc1)N1CCCC[C@@H]1c1nc(-c2ccccn2)cs1` [Example 6, 2-Phenoxy-1-[(R)-2-(4-pyridin-2-yl-thiazol-2-yl)-piperidin-1-yl]-ethanone], for which the midpoint of inhibition, the IC50, lay at 0.0196 µM.

For `O=C(COc1ccccc1)N1CCCC[C@@H]1c1nc(-c2ccc(F)c(F)c2)cs1` [Example 7, 1-{(R)-2-[4-(3,4-Difluoro-phenyl)-thiazol-2-yl]-piperidin-1-yl}-2-phenoxy-ethanone], the 50% inhibitory concentration (IC50) amounted to 0.286 µM.

Regarding `O=C(COc1ccccc1)N1CCCC[C@@H]1c1nc(-c2cccnc2)cs1` [Example 8, 2-Phenoxy-1-[(R)-2-(4-pyridin-3-yl-thiazol-2-yl)-piperidin-1-yl]-ethanone], the IC50 came to 0.025 µM.

On to `COc1ccc(Cl)cc1-c1csc([C@H]2CCCCN2C(=O)COc2ccccc2)n1` [Example 9, 1-{(R)-2-[4-(5-Chloro-2-methoxy-phenyl)-thiazol-2-yl]-piperidin-1-yl}-2-phenoxy-ethanone], for which the IC50 worked out at 0.247 µM.

`O=C(COc1ccccc1)N1CCCC[C@@H]1c1nc(-c2ccncc2)cs1` [Example 10, 2-Phenoxy-1-[(R)-2-(4-pyridin-4-yl-thiazol-2-yl)-piperidin-1-yl]-ethanone] had an IC50 of 0.068 µM.

For the molecule `COc1ccccc1-c1csc([C@H]2CCCCN2C(=O)COc2ccccc2)n1` [Example 11, 1-{(R)-2-[4-(2-Methoxy-phenyl)-thiazol-2-yl]-piperidin-1-yl}-2-phenoxy-ethanone], the midpoint of inhibition, the IC50, lay at 0.272 µM.

On to `CS(=O)(=O)c1ccc(-c2csc([C@H]3CCCCN3C(=O)COc3ccccc3)n2)cc1` [Example 12, 1-{(R)-2-[4-(4-Methanesulfonyl-phenyl)-thiazol-2-yl]-piperidin-1-yl}-2-phenoxy-ethanone], for which the midpoint of inhibition, the IC50, lay at 0.141 µM.

The molecule `COC(=O)c1cccc(-c2csc([C@H]3CCCCN3C(=O)COc3ccccc3)n2)n1` [Example 13, 6-{2-[(R)-1-(2-Phenoxy-acetyl)-piperidin-2-yl]-thiazol-4-yl}-pyridine-2-carboxylic acid methyl ester] gave an IC50 of 0.0424 µM.

Consider `O=C1Cc2cc(-c3csc([C@H]4CCCCN4C(=O)COc4ccccc4)n3)ccc2N1` [Example 14, 5-{2-[(R)-1-(2-Phenoxy-acetyl)-piperidin-2-yl]-thiazol-4-yl}-1,3-dihydro-indol-2-one], for which half-maximal inhibition (IC50) required 0.0659 µM.

Regarding `CC(=O)Nc1ccc(-c2csc([C@H]3CCCCN3C(=O)COc3ccccc3)n2)cc1` [Example 15, N-(4-{2-[(R)-1-(2-Phenoxy-acetyl)-piperidin-2-yl]-thiazol-4-yl}-phenyl)-acetamide], the IC50 worked out at 0.0326 µM.

Take `O=C(COc1ccccc1)N1CCCC[C@@H]1c1nc(-c2ccc(O)cc2)cs1` [Example 16, 1-{(R)-2-[4-(4-Hydroxy-phenyl)-thiazol-2-yl]-piperidin-1-yl}-2-phenoxy-ethanone]: the IC50 is 0.0796 µM.

Take `O=C(COc1ccccc1)N1CCCC[C@@H]1c1nc(-c2ccc3c(c2)OCO3)cs1` [Example 17, 1-[(R)-2-(4-Benzo[1,3]dioxol-5-yl-thiazol-2-yl)-piperidin-1-yl]-2-phenoxy-ethanone]: half-maximal inhibition (IC50) was put at 0.134 µM.

`CN(C)c1ccc(-c2csc([C@H]3CCCCN3C(=O)COc3ccccc3)n2)cc1` [Example 18, 1-{(R)-2-[4-(4-Dimethylamino-phenyl)-thiazol-2-yl]-piperidin-1-yl}-2-phenoxy-ethanone]: the IC50 was found to be 0.42 µM.

Consider `Cc1c(-c2csc([C@H]3CCCCN3C(=O)COc3ccccc3)n2)[nH]c2ccccc12` [Example 19, 1-{(R)-2-[4-(3-Methyl-1H-indol-2-yl)-thiazol-2-yl]-piperidin-1-yl}-2-phenoxy-ethanone], for which the IC50 came to 0.33 µM.

Consider `N#Cc1ccc(-c2csc([C@H]3CCCCN3C(=O)COc3ccccc3)n2)cc1` [Example 20, 4-{2-[(R)-1-(2-Phenoxy-acetyl)-piperidin-2-yl]-thiazol-4-yl}-benzonitrile], for which half-maximal inhibition (IC50) required 0.0405 µM.

`N#Cc1cccc(-c2csc([C@H]3CCCCN3C(=O)COc3ccccc3)n2)c1` [Example 21, 3-{2-[(R)-1-(2-Phenoxy-acetyl)-piperidin-2-yl]-thiazol-4-yl}-benzonitrile] displayed an IC50 of 0.065 µM.

In the case of `O=C(COc1ccccc1)N1CCCC[C@@H]1c1nc(-c2ccc(Cl)nc2)cs1` [Example 22, 1-{(R)-2-[4-(6-Chloro-pyridin-3-yl)-thiazol-2-yl]-piperidin-1-yl}-2-phenoxy-ethanone], the IC50 amounted to 0.095 µM.

Molecule `O=C(COc1ccccc1)N1CCCC[C@@H]1c1nc(-c2ccc(Br)s2)cs1` [Example 23, 1-{(R)-2-[4-(5-Bromo-thiophen-2-yl)-thiazol-2-yl]-piperidin-1-yl}-2-phenoxy-ethanone] came in with an IC50 of 0.0886 µM.

The molecule `CC(=O)Nc1ccc(-c2nc([C@H]3CCCCN3C(=O)COc3ccccc3)cs2)cc1` [Example 25, N-(4-{4-[(R)-1-(2-Phenoxy-acetyl)-piperidin-2-yl]-thiazol-2-yl}-phenyl)-acetamide] displayed an IC50 of 0.164 µM.

For `O=C(COc1ccccc1)N1CCCC[C@@H]1c1csc(-c2n[nH]c3ccccc23)n1` [Example 26, 1-{(R)-2-[2-(1H-Indazol-3-yl)-thiazol-4-yl]-piperidin-1-yl}-2-phenoxy-ethanone], half-maximal inhibition (IC50) required 0.13 µM.

Take `O=C(COc1ccccc1)N1CCCC[C@@H]1c1csc(-c2ccc(C(F)(F)F)nc2)n1` [Example 27, 2-Phenoxy-1-{(R)-2-[2-(6-trifluoromethyl-pyridin-3-yl)-thiazol-4-yl]-piperidin-1-yl}-ethanone]: the IC50 was 0.313 µM.

As for `O=C(COc1ccccc1)N1CCCC[C@@H]1c1csc(-c2ccc(C(F)(F)F)cn2)n1` [Example 28, 2-Phenoxy-1-{(R)-2-[2-(5-trifluoromethyl-pyridin-2-yl)-thiazol-4-yl]-piperidin-1-yl}-ethanone], the IC50 is 0.935 µM.

Consider `O=C(COc1ccccc1)N1CCCC[C@@H]1c1csc(-c2cnccn2)n1` [Example 29, 2-Phenoxy-1-[(R)-2-(2-pyrazin-2-yl-thiazol-4-yl)-piperidin-1-yl]-ethanone], for which the IC50 was determined as 0.224 µM.
